Data: ChEMBL document CHEMBL1201862, “PubChem BioAssay data set” (2004)
Calls of active or inactive are those of the source.

Columns and labels:
Insulin-degrading enzyme [1] = target: T1, Insulin-degrading enzyme (Homo sapiens, UniProt P14735); assay: activators of recombinant IDE enzyme, dose response, counter-screen for IDE activator project, biochemical, fluorescence polarization (AID 588681)
T1 sequence (P14735 whole entry): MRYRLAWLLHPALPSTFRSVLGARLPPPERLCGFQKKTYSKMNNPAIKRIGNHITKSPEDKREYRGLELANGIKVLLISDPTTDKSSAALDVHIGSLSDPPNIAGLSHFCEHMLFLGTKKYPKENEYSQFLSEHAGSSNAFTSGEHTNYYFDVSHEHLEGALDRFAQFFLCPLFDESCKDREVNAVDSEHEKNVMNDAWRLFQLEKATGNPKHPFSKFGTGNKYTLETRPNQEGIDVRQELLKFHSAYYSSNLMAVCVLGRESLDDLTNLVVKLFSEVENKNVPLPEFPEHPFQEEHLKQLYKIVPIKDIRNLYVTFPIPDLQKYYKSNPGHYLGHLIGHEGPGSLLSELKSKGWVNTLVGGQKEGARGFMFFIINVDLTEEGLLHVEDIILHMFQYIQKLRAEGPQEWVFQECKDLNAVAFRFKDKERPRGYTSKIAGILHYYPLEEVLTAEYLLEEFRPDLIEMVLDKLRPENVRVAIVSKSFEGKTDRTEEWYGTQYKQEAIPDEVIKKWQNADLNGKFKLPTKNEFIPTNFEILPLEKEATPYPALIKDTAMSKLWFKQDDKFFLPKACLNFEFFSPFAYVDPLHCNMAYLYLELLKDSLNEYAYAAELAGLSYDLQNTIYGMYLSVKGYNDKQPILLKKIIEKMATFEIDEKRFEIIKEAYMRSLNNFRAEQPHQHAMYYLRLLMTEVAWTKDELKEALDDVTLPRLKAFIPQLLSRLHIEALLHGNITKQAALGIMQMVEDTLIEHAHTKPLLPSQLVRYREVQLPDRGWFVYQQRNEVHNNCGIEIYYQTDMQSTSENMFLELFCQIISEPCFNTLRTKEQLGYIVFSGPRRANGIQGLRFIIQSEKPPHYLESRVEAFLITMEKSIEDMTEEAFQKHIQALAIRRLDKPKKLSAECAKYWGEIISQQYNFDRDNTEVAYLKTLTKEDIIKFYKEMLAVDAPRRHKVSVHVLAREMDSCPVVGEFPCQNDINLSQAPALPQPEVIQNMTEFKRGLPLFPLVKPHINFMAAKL

Insulin-degrading enzyme [2] = target: T1, Insulin-degrading enzyme; assay: activators of endogenous IDE in HEK cells, dose response, cell-based, fluorescence polarization (AID 588439); format: functional
HEK293 [3] = assay: HEK cell cytotoxicity by LDH release, dose response, cytotoxicity control for IDE activator project, fluorescence, HEK cells (AID 588440); format: functional, cell-based; conditions: Homo sapiens;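 note: cytotoxicity by LDH release measuring loss of membrane integrity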
HEK293 [4] = assay: optical interference in Abeta FP readout, dose response, artefact control for IDE activator project, biochemical, fluorescence polarization (AID 588442); format: functional, cell-based; conditions: Homo sapiens
[5] = target: Melanin-concentrating hormone receptor 1 (Homo sapiens, UniProt Q99705); assay: Late-stage fluorescence-based counterscreen for antagonists of the G-protein coupled receptor 7 (GPR7): cell-based dose response assay to identify antagonists of the melanin-concentrating hormone receptor 1 (MCHR1) Set 5.; format: functional
[6] = target: T2, Aryl hydrocarbon receptor (Homo sapiens, UniProt P35869); conditions: Potency;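 note: confirmatory quantitative high-throughput screen measuring activation of the AhR signaling pathway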
T2 sequence (P35869 whole entry): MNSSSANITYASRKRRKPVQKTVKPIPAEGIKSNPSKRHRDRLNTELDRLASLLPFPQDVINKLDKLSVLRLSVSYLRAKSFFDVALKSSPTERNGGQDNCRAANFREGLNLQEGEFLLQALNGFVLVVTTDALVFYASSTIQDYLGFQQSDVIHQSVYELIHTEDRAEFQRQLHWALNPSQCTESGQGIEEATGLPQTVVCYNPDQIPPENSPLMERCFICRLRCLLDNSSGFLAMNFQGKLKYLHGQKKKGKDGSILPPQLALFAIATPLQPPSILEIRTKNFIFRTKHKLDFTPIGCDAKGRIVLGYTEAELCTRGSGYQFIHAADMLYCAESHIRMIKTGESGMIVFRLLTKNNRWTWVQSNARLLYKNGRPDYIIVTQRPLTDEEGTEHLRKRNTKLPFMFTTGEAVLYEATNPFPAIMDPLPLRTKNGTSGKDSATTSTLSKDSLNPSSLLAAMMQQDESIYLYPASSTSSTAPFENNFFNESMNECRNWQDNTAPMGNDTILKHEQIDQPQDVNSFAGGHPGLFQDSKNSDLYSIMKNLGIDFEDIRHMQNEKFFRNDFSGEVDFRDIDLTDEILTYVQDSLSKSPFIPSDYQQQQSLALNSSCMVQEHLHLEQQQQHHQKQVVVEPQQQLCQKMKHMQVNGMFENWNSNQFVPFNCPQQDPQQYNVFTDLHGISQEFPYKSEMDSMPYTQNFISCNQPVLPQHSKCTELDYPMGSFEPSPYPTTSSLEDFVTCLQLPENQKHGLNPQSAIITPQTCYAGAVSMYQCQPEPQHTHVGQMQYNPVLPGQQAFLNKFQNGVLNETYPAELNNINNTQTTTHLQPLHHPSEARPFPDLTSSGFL

cells [7] = format: functional, cell-based
cells [8] = format: functional, cell-based; remark: listed apart in the source
INS1 = assay: beta cell apoptosis inhibitors, cytokine rescue, dose response, luminescence, retest (AID 449756); format: functional, cell-based; conditions: Rattus norvegicus;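 note: cell death triggered by IL-1 beta plus TNF-alpha plus IFN-gamma mixture; protective hits raise ATP signal compared with cytokine alone wells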
[9] = target: DNA (cytosine-5)-methyltransferase 1 (Homo sapiens, UniProt P26358); assay: DNMT1 methyltransferase inhibitors, confirmation, biochemical, fluorescent molecular beacon (AID 602386); format: functional
[10] = target: SWI/SNF-related matrix-associated actin-dependent regulator of chromatin subfamily A member 2 (Homo sapiens, UniProt P51531); assay: Luminescence-based cell-based high throughput dose response assay to identify activators of the function of SWI/SNF related, matrix associated, actin dependent regulator of chromatin, subfamily a, member 2 (SMARCA2, BRM).; format: functional
[11] = Counterscreen for activators of the function of SWI/SNF related, matrix associated, actin dependent regulator of chromatin, subfamily a, member 2 (SMARCA2, BRM): Luminescence-based cell-based high throughput dose response assay to identify non-selective compounds using the VP16 reporter assay.; format: functional
[12] = target: Mitochondrial peptide methionine sulfoxide reductase (Bos taurus, UniProt P54149); format: functional;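 note: absorbance read-out, biochemical high-throughput dose-response screen for MsrA inhibitors, confirmatory; recombinant bovine MsrA coupled to E. coli TrxB with NADPH and selenocystamine; potency is for inhibitors of MsrA activity on DMSO substrate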
[13] = target: Tyrosine-protein phosphatase non-receptor type 11 (Homo sapiens, UniProt Q06124); assay: SHP2 phosphatase inhibition, dose response, selectivity assay for STEP inhibitor project, biochemical (AID 602367); format: functional; conditions: read-out: IC50_Mean
[14] = target: Tyrosine-protein phosphatase non-receptor type 5 (Homo sapiens, UniProt P54829); assay: STEP phosphatase inhibitors, confirmation, biochemical, fluorescence intensity, uHTS hits (AID 602372); format: functional; conditions: read-out: IC50_Mean
[15] = target: Dual specificity protein phosphatase 3 (Homo sapiens, UniProt P51452); assay: VHR phosphatase inhibition, dose response, selectivity assay for STEP inhibitor project, biochemical (AID 602374); format: functional; conditions: read-out: IC50_Mean
Interleukin-8 [16] = target: T3, Interleukin-8 (Homo sapiens, UniProt P10145); assay: Dose Response confirmation of uHTS small molecule hits for cystic fibrosis induced NFkb Inhibitors in a TNFa-induced IL8 counterscreen.; format: functional; conditions: read-out: IC50_Mean
T3 sequence (P10145 whole entry): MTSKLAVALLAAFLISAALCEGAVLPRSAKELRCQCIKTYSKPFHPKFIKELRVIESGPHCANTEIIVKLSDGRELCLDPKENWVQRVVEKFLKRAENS

[17] = target: T4, Rac GTPase-activating protein 1 (Homo sapiens, UniProt Q9H0H5); assay: MgcRacGAP GTPase-activating activity inhibitors, confirmation, biochemical, ADP Hunter fluorescence, primary and confirmatory (AID 624330); format: functional
T4 sequence (Q9H0H5 whole entry): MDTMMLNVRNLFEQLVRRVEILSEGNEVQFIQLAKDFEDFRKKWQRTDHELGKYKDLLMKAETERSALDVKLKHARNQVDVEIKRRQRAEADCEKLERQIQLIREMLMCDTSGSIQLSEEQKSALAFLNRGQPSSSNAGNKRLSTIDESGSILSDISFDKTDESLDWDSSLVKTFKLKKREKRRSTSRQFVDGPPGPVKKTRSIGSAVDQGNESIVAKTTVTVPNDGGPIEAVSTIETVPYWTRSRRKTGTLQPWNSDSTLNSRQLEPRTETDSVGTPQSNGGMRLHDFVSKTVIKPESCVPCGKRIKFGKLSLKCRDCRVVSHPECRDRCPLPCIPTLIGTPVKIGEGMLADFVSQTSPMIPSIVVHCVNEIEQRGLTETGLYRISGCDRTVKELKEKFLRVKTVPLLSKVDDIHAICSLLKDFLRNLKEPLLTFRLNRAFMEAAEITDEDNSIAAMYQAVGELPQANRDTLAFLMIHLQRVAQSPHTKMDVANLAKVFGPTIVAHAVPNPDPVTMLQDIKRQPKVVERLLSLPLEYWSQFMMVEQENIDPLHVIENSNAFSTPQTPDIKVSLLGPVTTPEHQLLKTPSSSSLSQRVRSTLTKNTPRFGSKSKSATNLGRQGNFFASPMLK

Interleukin-8 [18] = target: T3, Interleukin-8; assay: Dose Response confirmation of uHTS small molecule hits for cystic fibrosis induced NFkb Inhibitors in a PAF-induced IL8 counterscreen.; format: functional; conditions: read-out: IC50_Mean
[19] = target: T5, Heat shock factor protein 1 (Mus musculus, UniProt P38532); assay: HSF1 potentiators in luciferase reporter cells, confirmation, cell-based, NIH3T3, luminescence, dose retest (AID 435004); format: functional;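 note: stress induced by proteasome inhibitor MG132 added 30 min after compound; luciferase reporter driven by HSF1 response element in NIH3T3 cells; actives raise luminescence as potentiators of the MG132 stress response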
T5 sequence (P38532 whole entry): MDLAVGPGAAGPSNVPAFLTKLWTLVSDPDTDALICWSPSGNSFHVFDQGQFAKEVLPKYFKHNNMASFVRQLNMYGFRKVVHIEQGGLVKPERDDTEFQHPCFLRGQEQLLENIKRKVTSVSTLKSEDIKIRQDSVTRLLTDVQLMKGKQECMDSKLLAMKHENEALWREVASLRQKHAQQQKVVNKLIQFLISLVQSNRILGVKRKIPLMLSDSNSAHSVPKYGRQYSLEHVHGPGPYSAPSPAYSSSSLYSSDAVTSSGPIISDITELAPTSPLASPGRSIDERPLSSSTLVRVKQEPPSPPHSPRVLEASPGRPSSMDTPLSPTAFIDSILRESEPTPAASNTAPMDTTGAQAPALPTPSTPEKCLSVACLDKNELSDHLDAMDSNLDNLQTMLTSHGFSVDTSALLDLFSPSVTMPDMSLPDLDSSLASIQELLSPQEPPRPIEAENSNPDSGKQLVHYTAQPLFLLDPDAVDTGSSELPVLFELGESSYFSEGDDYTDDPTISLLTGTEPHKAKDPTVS

Melanocortin receptor 4 = Melanocortin receptor 4 (Homo sapiens, UniProt P32245); assay: MC4R antagonist potency on cAMP, dose response, cell-based, TR-FRET, biased antagonists (AID 602298); format: functional;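 note: antagonist potency against agonist-stimulated cAMP production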
[20] = nonselective inhibitors of cellular cAMP signaling, dose response, counter-screen for MC4R biased antagonist project, cell-based, TR-FRET cAMP detection (AID 602305); format: functional;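 note: U2OS cells stimulated with forskolin near its EC80 as the cAMP inducer; potency is for inhibition of forskolin-stimulated cAMP signaling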
Beta-galactosidase = Beta-galactosidase (Escherichia coli, UniProt Q8VNN2); assay: Dose response counterscreen for EBI2 assay utilizing the enzyme, b-galactosidase.; format: functional
[21] = target: Testis-specific serine/threonine-protein kinase 2 (Homo sapiens, UniProt Q96PF2); format: functional;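 note: part of the Navigating the Kinome panel, target entry STK22B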
[22] = target: Cell division cycle 7-related protein kinase (Homo sapiens, UniProt O00311); format: functional;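 note: value obtained from a kinome-wide kinase panel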
[23] = target: Mitogen-activated protein kinase 12 (Homo sapiens, UniProt P53778); format: functional;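 note: measured as one member of a kinome-wide kinase profiling panel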
[24] = target: Potassium voltage-gated channel subfamily KQT member 2 (Rattus norvegicus, UniProt O88943); assay: KCNQ2 potassium channel inhibitors, dose response, cell-based, automated electrophysiology, set II, rat KCNQ2 (AID 588637); format: functional
Sequence of Potassium voltage-gated channel subfamily KQT member 2 (O88943 whole entry): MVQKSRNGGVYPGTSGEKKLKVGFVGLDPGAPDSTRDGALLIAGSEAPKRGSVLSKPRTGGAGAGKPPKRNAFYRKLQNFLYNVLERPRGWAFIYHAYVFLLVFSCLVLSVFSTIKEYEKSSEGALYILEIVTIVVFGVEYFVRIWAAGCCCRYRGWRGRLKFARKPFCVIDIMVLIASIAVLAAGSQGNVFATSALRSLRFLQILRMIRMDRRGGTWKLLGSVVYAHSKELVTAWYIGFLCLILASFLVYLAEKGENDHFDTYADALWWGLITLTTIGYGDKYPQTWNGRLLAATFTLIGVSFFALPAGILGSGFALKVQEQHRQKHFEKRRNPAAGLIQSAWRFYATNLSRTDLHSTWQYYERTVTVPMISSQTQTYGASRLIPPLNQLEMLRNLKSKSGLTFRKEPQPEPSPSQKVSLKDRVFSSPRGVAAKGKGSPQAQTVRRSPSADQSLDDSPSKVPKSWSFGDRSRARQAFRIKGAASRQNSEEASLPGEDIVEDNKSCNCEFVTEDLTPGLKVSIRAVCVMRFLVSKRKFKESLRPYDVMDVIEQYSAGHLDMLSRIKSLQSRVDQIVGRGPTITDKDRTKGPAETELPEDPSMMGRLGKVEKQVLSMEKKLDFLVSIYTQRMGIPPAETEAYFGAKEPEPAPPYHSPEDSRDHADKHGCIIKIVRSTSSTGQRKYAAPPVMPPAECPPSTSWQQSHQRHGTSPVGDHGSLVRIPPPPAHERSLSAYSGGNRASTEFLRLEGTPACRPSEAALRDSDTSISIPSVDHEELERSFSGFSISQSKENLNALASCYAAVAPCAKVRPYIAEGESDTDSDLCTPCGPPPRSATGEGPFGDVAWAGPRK

Sequence of Mitochondrial peptide methionine sulfoxide reductase (P54149 whole entry): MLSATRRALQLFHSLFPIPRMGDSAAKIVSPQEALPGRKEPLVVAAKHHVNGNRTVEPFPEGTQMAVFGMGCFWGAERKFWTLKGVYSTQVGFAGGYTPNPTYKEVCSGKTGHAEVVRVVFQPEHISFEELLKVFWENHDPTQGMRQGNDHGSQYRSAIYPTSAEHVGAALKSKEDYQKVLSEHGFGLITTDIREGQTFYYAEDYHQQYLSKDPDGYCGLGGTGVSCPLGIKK
Sequence of Testis-specific serine/threonine-protein kinase 2 (Q96PF2 whole entry): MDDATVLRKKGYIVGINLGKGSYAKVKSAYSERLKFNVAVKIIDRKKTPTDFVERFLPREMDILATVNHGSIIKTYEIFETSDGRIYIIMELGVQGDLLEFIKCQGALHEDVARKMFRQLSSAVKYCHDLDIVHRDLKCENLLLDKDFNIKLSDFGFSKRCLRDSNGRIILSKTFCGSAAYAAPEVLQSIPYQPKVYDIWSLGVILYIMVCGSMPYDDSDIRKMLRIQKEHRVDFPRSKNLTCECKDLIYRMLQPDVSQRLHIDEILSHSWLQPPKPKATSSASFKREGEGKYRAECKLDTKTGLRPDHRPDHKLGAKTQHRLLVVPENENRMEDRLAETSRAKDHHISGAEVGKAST
Sequence of Dual specificity protein phosphatase 3 (P51452 whole entry): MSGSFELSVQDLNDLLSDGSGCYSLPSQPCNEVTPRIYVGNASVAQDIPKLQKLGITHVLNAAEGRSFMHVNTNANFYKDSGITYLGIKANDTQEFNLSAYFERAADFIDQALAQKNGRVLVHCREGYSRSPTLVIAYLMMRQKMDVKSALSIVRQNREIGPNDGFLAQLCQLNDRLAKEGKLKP
Sequence of DNA (cytosine-5)-methyltransferase 1 (P26358 whole entry): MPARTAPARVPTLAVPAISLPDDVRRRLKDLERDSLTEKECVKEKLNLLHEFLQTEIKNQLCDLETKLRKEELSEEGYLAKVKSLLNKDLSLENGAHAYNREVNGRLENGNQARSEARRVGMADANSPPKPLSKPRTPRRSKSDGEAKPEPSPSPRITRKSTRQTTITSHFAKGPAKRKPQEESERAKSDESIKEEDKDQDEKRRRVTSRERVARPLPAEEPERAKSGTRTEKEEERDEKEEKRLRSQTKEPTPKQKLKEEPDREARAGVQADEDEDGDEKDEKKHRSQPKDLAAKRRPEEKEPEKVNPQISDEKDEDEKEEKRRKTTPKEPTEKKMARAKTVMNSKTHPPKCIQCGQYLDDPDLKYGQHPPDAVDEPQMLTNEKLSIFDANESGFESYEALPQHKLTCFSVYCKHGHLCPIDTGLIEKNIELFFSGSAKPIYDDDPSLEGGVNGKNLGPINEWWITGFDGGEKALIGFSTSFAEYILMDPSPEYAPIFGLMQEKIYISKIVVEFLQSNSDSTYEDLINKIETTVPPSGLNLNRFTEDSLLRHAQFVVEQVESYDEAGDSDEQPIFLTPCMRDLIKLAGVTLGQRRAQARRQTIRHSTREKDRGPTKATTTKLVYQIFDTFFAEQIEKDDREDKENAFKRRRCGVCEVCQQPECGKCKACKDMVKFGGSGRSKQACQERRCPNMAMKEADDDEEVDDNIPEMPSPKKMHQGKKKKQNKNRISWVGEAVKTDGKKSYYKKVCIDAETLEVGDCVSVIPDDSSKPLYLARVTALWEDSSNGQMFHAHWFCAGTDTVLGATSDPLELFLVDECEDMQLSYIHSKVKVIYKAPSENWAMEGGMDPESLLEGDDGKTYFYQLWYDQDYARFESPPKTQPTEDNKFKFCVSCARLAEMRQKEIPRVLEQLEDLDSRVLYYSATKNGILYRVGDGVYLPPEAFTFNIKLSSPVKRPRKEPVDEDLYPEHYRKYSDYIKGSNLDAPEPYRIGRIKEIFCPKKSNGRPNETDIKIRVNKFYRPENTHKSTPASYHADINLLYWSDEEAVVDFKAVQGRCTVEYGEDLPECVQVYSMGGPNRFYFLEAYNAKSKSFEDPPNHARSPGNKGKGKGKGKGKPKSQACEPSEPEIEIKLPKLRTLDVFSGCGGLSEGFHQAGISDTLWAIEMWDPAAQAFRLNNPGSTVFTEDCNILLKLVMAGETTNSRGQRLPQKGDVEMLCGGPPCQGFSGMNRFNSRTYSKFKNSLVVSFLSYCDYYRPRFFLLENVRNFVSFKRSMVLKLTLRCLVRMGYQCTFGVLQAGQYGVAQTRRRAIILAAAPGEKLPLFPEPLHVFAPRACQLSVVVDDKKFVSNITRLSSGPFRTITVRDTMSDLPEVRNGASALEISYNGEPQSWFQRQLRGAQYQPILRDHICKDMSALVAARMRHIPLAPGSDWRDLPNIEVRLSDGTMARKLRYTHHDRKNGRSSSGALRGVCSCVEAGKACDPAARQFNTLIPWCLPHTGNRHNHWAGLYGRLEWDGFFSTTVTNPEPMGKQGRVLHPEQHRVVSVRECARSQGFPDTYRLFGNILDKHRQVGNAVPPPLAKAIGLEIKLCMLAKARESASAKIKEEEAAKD
Sequence of Mitogen-activated protein kinase 12 (P53778 whole entry): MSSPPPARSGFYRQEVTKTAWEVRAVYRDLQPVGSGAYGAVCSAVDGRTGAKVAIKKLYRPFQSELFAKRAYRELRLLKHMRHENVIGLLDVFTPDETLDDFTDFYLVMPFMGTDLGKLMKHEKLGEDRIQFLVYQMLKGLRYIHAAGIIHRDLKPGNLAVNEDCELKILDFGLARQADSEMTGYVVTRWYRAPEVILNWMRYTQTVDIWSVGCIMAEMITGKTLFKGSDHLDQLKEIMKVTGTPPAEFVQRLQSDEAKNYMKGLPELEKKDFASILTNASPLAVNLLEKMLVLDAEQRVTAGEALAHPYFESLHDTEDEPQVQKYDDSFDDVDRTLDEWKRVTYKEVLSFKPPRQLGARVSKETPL
Sequence of Tyrosine-protein phosphatase non-receptor type 11 (Q06124 whole entry): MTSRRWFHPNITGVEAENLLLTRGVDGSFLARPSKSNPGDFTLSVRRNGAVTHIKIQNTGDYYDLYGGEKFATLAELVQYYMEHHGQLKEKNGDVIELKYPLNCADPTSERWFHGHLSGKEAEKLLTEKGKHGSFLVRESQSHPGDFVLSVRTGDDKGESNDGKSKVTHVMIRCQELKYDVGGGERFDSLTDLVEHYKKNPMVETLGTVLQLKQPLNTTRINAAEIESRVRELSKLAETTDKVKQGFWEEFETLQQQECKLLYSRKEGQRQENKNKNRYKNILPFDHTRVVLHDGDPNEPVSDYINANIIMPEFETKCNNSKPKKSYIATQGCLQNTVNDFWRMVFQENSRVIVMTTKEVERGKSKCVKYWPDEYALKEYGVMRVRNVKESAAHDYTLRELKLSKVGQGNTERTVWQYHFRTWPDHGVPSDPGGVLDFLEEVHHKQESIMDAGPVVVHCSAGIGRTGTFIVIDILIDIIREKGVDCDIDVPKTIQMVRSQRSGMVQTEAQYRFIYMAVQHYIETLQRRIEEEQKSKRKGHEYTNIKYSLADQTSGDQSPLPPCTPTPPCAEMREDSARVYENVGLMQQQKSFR
Sequence of Cell division cycle 7-related protein kinase (O00311 whole entry): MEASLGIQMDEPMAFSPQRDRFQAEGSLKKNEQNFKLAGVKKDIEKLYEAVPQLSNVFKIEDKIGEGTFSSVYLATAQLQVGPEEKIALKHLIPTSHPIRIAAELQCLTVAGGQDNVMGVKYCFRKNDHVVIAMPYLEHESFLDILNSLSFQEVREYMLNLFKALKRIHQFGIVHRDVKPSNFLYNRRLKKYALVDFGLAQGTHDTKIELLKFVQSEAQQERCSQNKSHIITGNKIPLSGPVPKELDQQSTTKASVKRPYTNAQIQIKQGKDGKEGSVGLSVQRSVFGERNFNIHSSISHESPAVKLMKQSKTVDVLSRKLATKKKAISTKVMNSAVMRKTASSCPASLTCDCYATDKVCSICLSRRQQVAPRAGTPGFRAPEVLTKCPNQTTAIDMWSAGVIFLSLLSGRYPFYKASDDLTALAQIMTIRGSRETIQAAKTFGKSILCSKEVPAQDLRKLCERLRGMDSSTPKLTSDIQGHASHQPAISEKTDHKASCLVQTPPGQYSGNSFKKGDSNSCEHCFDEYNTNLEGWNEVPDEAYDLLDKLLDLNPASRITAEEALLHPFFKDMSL

Compound: COc1ccc(/C=C2\Oc3cc(OCC(=O)N4CCC(C(=O)O)CC4)ccc3C2=O)c(OC)c1
- EC50 (Insulin-degrading enzyme [1]): > 54.7 µM (inactive)
- EC50 (Insulin-degrading enzyme [2]): > 54.7 µM (inactive)
- IC50 (HEK293 [3]): > 89.3 µM (inactive)
- EC50 (HEK293 [4]): > 56 µM (inactive)

Compound: CCc1ccccc1Cn1ncc(Cl)c(Oc2ccc(OC)cc2)c1=O
- IC50 [5]: 4.62 µM (active)

Compound: Cc1nc(Cc2nnc(SC(C)C(=O)N3c4ccccc4NC(=O)C3(C)C)o2)cs1 (stereo unspecified)
- EC50 (Insulin-degrading enzyme [1]): > 54.7 µM (inactive)
- EC50 (Insulin-degrading enzyme [2]): > 54.7 µM (inactive)
- IC50 (HEK293 [3]): > 89.1 µM (inactive)
- EC50 (HEK293 [4]): > 55.9 µM (inactive)

Compound: Cc1ccccc1C(=O)Nc1cccc(OC(C)C)c1 [MEPRONIL]
- AC50 [6]: 28.2 µM (inconclusive)

Compound: CCN(CC)CCOc1ccc2c(c1)C(=NO)c1cc(OCCN(CC)CC)ccc1-2
- EC50 (cells [7]): > 350 µM (not active)
- EC50 (cells [8]): > 350 µM (not active)
- AC50 (INS1): 5.22 µM (active)
- IC50 [9]: > 99 µM (inactive)
- EC50 [10]: 11.4 µM (inactive)
- EC50 [11]: > 91.1 µM (inactive)

Compound: O=C(NCCc1ccccc1)c1ccc(=O)oc1
- IC50 [12]: 144 µM (inactive)

Compound: CCOC(=O)N1CCC(N(CCN(C)C)C(=S)Nc2ccc(Oc3ccccc3)cc2)CC1
- IC50 [13]: 3.17 µM (active)
- IC50 [14]: 6.93 µM (active)
- IC50 [15]: 0.5 µM (active)

Compound: COc1ccc(-c2c[nH]nc2-c2ccc(O)cc2O)cc1
- IC50 (Interleukin-8 [16]): 2.62 µM (active)
- IC50 [17]: 43.9 µM (active)
- IC50 (Interleukin-8 [18]): 6.94 µM (active)

Compound: CCOC(=O)c1ccc(/N=c2\sc(C(=O)OC)cc(=O)n2-c2ccc(C(=O)OCC)cc2)cc1
- EC50 [19]: 3.42 µM (active)
- IC50 (Melanocortin receptor 4): > 64.6 µM (inactive)
- IC50 [20]: > 64.6 µM (inactive)
- IC50 (Beta-galactosidase): > 80 µM (inactive)

Compound: C[S+]([O-])c1ccc(-c2nc(-c3ccncc3)c(-c3ccc(F)cc3)[nH]2)cc1 (stereo unspecified) [SB-203580]
- Ki [21]: > 1.58 µM (inactive)
- Ki [22]: > 1.26 µM (inactive)
- Ki [23]: > 6.31 µM (inactive)

Compound: Cc1ccc2nc(-c3ccccc3)cc(C(=O)N3CC(C)OC(C)C3)c2c1 (stereo unspecified)
- IC50 [24]: 0.0681 µM (active)
